Values joined by “and” are separate entries in the source; they are usually repeats but may differ in a detail not shown here. Identical values can stand only once.
Assays:
[1] = target: T1, Human Serum Albumin (HSA) (Homo sapiens, UniProt P02768); experiment: Average bound relaxivity in the presence of 4.5% HSA (20 MHz, 37° C.); assay type: physicochemical; details: for R1bound/Gd^+3 mM^−1s^−1 (20 MHz) / Total R1bound mM^−1s^−1 (20 MHz): bound to HSA; for R1bound/Gd^+3 mM^−1s^−1 (20 MHz): per Gd(III); for Total R1bound mM^−1s^−1 (20 MHz): whole molecule
From the text: To understand Table 1, it is important to define the extent to which a target-binding MRI contrast agent can achieve its maximum possible relaxivity. This maximum relaxivity for a particular contrast agent is approximately equal to the relaxivity of the molecule when bound to a target (R1bound), such as Human Serum Albumin (HSA). The average ? bound is a normalized measure of the average relaxivity for all bound species under a standard set of conditions (such as a specific target or protein concentration, drug concentration, temperature, etc.) that is weighted by the bound population of each species. Therefore, since the value of ? bound is a normalized quantity, comparisons of relaxivities can be made among different molecules in the bound state by comparing values for ? bound. Comparison of the calculated ? bound values provides a convenient method for comparing compounds irrespective of their affinities for a target.
Calculating the average ( ? bound) requires measuring the relaxivity of the free chelate (R1free) as well as the observed relaxivity (R1obs) and percent binding of the agent to a target solution typically containing 4.5% of the target, e.g., HSA. The R1obs is a mole fraction (x) weighted average of R1free and R1bound: [formula]
(§1) The compounds of the present invention were evaluated for relaxivity using a Bruker NMS-120 Minispec NMR spectrometer operating at 0.47 Tesla (20 MHz H-1 Larmor frequency) and 37° C. T1 of water protons was determined by an inversion recovery pulse sequence using the instrument's software. Relaxivity was determined in the presence of the target (typically 4.5% HSA) by preparing 4 individual samples. The first contained only 4.5% HSA in phosphate buffered saline (PBS), and the other three contained ca. 20, 30, and 40 μM Gd(III), respectively, in addition to 4.5% HSA in PBS. The samples are incubated at 37 degrees C. for at least 15 minutes to ensure temperature equilibration before the T1 measurement is performed. The Gd(III) content of the samples is determined by inductively coupled plasma—mass spectrometry (ICP-MS). The relaxivity (per Gd(III) ion) is determined by plotting the relaxation rate (1/T1) in s^−1 versus the Gd(III) concentration in mM. The slope of a linear fit to the data gives the relaxivity. The relaxivity of the compounds in the absence of target is also determined in an analogous manner, except there is no target present.
The concentration of species bound to the target under these conditions is determined in a separate experiment using e.g. ultrafiltration or equilibrium dialysis. Knowledge of the amount of species bound to the target, the relaxivity in the presence of the target, and the relaxivity in the absence of the target allows the calculation of the average bound relaxivity as described herein.

[2] = target: T1, Human Serum Albumin (HSA); experiment: Percent binding to HSA (ultrafiltration); details: target HSA
From the text: The extent of binding of a TBM to a target, such as HSA or fibrin, can be assessed by a variety of equilibrium binding methods. For example, binding to HSA can be measured by ultrafiltration. In a typical binding measurement using ultrafiltration, the targeting group is mixed with 4.5% weight/volume HSA in a pH 7.4 buffer. The sample is loaded into a commercially available centrifugation apparatus equipped with a 30 KDa molecular weight cutoff filter (Millipore Ultrafree MC Low Binding Regenerated Cellulose 30 KDa mol. wt. cutoff catalog #UFC3LTK00), permeable to the targeting group, but not HSA. A small portion (5-10%) of the sample volume is filtered by centrifugation at 2000×g for 20 min through the cutoff filter, and the concentration of unbound targeting group in the sample is measured in the filtrate. The concentration of species bound to the target under these conditions is determined in a separate experiment using e.g. ultrafiltration or equilibrium dialysis. Knowledge of the amount of species bound to the target, the relaxivity in the presence of the target, and the relaxivity in the absence of the target allows the calculation of the average bound relaxivity as described herein.

[3] = Relaxivity of the free agent in the absence of target (20 MHz, 37° C.); assay type: physicochemical; details: no target
Protocol: as §1

[4] = target: T2, clot containing human fibrin (Homo sapiens, UniProt P02671+P02675+P02679); experiment: Rabbit jugular vein clot model, MR imaging; assay type: in vivo; details: MR images after injection (FIG. 14)
T2 construct: host or cells: clot formed in the clamped rabbit jugular vein from added human fibrinogen and thrombin
T2 sequence (P02671 36-629 limits assumed): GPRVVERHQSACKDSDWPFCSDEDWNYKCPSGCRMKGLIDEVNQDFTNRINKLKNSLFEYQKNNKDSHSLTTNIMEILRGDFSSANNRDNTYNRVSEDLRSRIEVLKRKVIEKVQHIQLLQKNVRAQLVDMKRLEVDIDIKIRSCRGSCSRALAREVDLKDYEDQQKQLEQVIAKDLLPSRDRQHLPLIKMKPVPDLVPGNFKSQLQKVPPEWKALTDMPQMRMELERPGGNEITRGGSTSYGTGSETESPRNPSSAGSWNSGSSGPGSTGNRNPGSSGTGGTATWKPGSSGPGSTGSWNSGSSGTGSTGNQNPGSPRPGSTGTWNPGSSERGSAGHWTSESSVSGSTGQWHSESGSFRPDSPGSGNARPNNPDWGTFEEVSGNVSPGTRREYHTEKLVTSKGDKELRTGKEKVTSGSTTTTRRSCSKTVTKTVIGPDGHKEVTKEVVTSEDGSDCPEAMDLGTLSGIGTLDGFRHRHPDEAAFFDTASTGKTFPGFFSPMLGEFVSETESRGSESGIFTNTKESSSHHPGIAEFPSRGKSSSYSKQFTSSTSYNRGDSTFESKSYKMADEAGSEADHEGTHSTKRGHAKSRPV
T2 sequence (P02675 45-491 limits assumed): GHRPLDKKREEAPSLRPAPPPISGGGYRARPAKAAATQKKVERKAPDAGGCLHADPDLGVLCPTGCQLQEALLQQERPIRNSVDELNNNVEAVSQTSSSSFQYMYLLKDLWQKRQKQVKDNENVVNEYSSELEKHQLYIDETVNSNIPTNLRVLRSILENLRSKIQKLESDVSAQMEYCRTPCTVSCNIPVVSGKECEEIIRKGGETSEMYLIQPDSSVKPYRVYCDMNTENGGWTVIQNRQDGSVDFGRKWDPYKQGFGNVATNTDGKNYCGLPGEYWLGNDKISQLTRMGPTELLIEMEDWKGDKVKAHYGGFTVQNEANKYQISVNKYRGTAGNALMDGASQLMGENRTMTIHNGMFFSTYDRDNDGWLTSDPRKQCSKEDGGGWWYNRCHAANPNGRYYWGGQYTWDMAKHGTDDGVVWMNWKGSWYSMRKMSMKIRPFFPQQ
T2 sequence (P02679 27-437 isoform P02679-2 limits assumed): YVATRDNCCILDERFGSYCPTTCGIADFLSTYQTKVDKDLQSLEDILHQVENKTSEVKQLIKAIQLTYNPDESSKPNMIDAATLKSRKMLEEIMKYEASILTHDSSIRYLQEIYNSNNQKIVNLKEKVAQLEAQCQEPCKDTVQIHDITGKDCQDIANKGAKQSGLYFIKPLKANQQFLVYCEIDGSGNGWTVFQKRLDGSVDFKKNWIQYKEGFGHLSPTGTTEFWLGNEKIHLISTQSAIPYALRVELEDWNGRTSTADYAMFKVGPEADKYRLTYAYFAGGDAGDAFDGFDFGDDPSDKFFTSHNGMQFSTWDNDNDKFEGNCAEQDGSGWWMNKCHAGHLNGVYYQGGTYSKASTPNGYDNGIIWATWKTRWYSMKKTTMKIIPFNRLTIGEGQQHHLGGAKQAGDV
Protocol: One animal model that may be used is the rabbit jugular vein clot model in which the jugular vein is clamped. The vein is clamped at two locations, and the rabbit blood between the clamps is removed. Human fibrinogen, rabbit red blood cells and thrombin are added to the vein between the clamps to generate a clot containing human fibrin. The clot is typically aged for 30 minutes.
In the rabbit jugular model, a typical machine is a 1.5 Tesla using a spoiled gradient (SPGR) MRI at 36/5/30 deg). Alternatively, a 3D GRE 44/10/30 deg. method of imaging may be used with a 1.5 Tesla machine. Alternatively, IR 2000/10/700 methods may be employed with a 1.5 Tesla.
FIG. 14 is a reproduction of a color photograph of the images obtained in an experiment using the assay given in Example 1.

T1 sequence (P02768 25-609): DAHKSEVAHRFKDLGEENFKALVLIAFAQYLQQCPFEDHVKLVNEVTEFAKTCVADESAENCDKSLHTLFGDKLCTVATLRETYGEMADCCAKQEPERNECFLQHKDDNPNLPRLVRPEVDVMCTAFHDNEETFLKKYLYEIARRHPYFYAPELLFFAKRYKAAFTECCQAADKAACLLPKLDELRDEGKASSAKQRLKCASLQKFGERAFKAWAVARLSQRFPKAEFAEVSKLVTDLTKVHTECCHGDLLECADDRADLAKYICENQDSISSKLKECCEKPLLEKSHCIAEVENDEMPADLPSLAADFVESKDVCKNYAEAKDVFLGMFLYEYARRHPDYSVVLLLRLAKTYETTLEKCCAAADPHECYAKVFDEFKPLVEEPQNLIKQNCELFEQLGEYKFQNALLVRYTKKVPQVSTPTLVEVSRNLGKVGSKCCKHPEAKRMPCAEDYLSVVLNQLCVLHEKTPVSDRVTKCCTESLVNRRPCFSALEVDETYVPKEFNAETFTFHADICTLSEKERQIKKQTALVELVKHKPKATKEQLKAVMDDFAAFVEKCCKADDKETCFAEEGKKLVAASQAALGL

Row | Compound | R1bound/Gd^+3 mM^−1s^−1 (20 MHz) [1] | Total R1bound mM^−1s^−1 (20 MHz) [1] | % Bound [2] [%] | ratio of R1bound to R1free ([1]; HSA) | fold increase in total relaxivity, two TBMs versus one TBM (M8-07) ([1]; HSA, relative to M8-07) [fold] | free relaxivity [3] [mM⁻¹ s⁻¹] | imaging of / binding to the clot [4]
1 | CCCCc1ccc(C(=O)N(Cc2ccccc2)C2c3ccccc3CC2OP(=O)([O-])OCCC#CCN2CCN(C(=O)CNC(=O)CC(C(=O)[O-])N(CCN(CC(=O)[O-])CC(=O)[O-])CCN(CC(=O)[O-])CC(=O)[O-])CCN(C(=O)CNC(=O)CC(C(=O)[O-])N(CCN(CC(=O)[O-])CC(=O)[O-])CCN(CC(=O)[O-])CC(=O)[O-])CCN(C(=O)CNC(=O)CC(C(=O)[O-])N(CCN(CC(=O)[O-])CC(=O)[O-])CCN(CC(=O)[O-])CC(=O)[O-])CC2)cc1.[Gd+3].[Gd+3].[Gd+3] (stereo not drawn) [Compound M8-10] | 25.7 mM⁻¹ s⁻¹ | 77.1 mM⁻¹ s⁻¹ | 66.1 | – | – | – | –
2 | Cc1cc(C)c(-c2ccc(CN(CCN(CCN(CCN(Cc3ccc(-c4c(C)cc(C)cc4C)cc3)C(=O)CNC(=O)CC(C(=O)[O-])N(CCN(CC(=O)[O-])CC(=O)[O-])CCN(CC(=O)[O-])CC(=O)[O-])C(=O)CNC(=O)CC(C(=O)[O-])N(CCN(CC(=O)[O-])CC(=O)[O-])CCN(CC(=O)[O-])CC(=O)[O-])C(=O)CNC(=O)CC(C(=O)[O-])N(CCN(CC(=O)[O-])CC(=O)[O-])CCN(CC(=O)[O-])CC(=O)[O-])C(=O)CNC(=O)CC(C(=O)[O-])N(CCN(CC(=O)[O-])CC(=O)[O-])CCN(CC(=O)[O-])CC(=O)[O-])cc2)c(C)c1.[Gd+3].[Gd+3].[Gd+3].[Gd+3] (stereo not drawn) [Compound M8-08] | 44.1 mM⁻¹ s⁻¹ | 176.5 mM⁻¹ s⁻¹ | 93.7 | 4.3 | 2.75 | 10.3 | –
3 | O=C([O-])CN(CCN(CC(=O)[O-])CC(=O)O)CCN(CC(=O)[O-])CC(=O)O.[Gd+3] [Gd-DTPA, gadolinium diethylenetriaminepentaacetic acid] | – | – | – | – | – | – | does not bind
4 | Cc1cc(C)c(-c2ccc(CN(CCN(CCN(CCNC(=O)CNC(=O)CC(C(=O)[O-])N(CCN(CC(=O)[O-])CC(=O)[O-])CCN(CC(=O)[O-])CC(=O)[O-])C(=O)CNC(=O)CC(C(=O)[O-])N(CCN(CC(=O)[O-])CC(=O)[O-])CCN(CC(=O)[O-])CC(=O)[O-])C(=O)CNC(=O)CC(C(=O)[O-])N(CCN(CC(=O)[O-])CC(=O)[O-])CCN(CC(=O)[O-])CC(=O)[O-])C(=O)CNC(=O)CC(C(=O)[O-])N(CCN(CC(=O)[O-])CC(=O)[O-])CCN(CC(=O)[O-])CC(=O)[O-])cc2)c(C)c1.[Gd+3].[Gd+3].[Gd+3].[Gd+3] (stereo not drawn) [Compound M8-07] | 16.0 mM⁻¹ s⁻¹ and 16 mM⁻¹ s⁻¹ | 64.0 mM⁻¹ s⁻¹ and 64 mM⁻¹ s⁻¹ | 64.1 | 1.7 | – | 9.2 | –

Source: patent US6652835B1, “Targeting multimeric imaging agents through multilocus binding” (Epix Medical, Inc., priority 1999, dated 2003)
